# Assay results reported in article PMC10140934, “In Vitro and In Silico Studies on Angiotensin I-Converting Enzyme Inhibitory Peptides Found in Hydrophobic Domains of Porcine Elastin” (Molecules, 2023).
# Residues, ends and D or L forms follow the SMILES beside them. No end group written: not given here.
# Target: T1, ACE (from rabbit lung) (Oryctolagus cuniculus, UniProt P12822)
# T1 construct: ACE (20 mU/mL, from rabbit lung) was used for the enzyme solution; from tissue; host or cells: rabbit lung
# T1 sequence (P12822 34-1310): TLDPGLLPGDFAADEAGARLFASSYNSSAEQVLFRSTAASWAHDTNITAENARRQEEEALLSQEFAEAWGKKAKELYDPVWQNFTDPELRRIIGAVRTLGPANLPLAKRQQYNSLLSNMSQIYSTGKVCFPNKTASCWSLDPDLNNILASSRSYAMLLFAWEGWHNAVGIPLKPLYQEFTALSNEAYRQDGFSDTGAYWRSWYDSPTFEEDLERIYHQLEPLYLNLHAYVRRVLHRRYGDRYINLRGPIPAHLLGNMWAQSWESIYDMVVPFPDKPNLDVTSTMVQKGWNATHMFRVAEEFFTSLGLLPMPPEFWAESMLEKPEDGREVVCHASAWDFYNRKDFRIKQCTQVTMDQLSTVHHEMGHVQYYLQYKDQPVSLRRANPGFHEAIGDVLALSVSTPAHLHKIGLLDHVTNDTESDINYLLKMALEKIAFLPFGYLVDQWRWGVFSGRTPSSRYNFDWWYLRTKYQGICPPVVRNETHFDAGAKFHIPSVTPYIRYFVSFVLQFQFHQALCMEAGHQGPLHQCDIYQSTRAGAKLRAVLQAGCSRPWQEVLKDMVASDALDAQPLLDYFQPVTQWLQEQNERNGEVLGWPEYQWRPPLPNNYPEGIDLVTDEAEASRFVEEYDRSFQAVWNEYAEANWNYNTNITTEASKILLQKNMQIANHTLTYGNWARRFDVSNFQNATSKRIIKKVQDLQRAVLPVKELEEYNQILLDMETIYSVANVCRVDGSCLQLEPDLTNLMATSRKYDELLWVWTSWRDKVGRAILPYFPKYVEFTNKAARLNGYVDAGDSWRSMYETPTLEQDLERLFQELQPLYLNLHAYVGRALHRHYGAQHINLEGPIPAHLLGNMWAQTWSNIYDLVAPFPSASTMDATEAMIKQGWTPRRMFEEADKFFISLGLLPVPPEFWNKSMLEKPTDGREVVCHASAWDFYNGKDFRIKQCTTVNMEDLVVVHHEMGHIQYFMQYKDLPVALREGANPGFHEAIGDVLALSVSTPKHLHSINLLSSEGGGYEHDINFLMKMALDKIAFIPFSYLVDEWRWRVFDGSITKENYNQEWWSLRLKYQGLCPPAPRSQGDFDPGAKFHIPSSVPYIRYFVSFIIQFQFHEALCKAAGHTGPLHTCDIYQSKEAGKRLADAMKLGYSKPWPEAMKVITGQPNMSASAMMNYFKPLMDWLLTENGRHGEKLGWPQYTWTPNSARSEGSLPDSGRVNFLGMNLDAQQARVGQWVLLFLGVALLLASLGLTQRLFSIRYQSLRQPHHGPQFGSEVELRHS
# Test: Assay of ACE inhibitory activity (HHL substrate, o-phthalaldehyde fluorescence)
# Format: biochemical
# Settings: pH 8.3, 37 °C, n = 3
# Procedure: The ACE inhibitory activity of newly synthesized peptides was measured under the following condition by using Nakano et al.’s method. ACE (20 mU/mL, from rabbit lung) was used for the enzyme solution and 100 mM hippuryl-histidyl-leucine (HHL) was used for the substrate solution. Each solution was prepared in 0.1 M HEPES buffer (pH 8.3, 0.3 M NaCl, 0.01% Triton-X). Both enzyme solution (25 μL) and sample solution (20 μL) were preincubated at 37 °C for 5 min. A total of 100 mM HHL substrate solution (25 μL) was added and incubated at 37 °C for 30 min. The reaction was stopped by the addition of 100 mM NaOH solution (25 μL), followed by the addition of 1% o-phthalaldehyde in methanol (25 μL) and maintained at room temperature for 20 min. Next, 100 mM HCl (25 μL) was added and further maintained at room temperature for 10 min. The amount of His-Leu cleaved from the substrate by ACE was determined by measuring the fluorescence intensity of the product reacted with o-phthalaldehyde (excitation wavelength 370 nm, emission wavelength 460 nm) in a microplate reader. ACE inhibitory activity was calculated by the following formula:a ACE inhibitory activity (%) = [1 − (a − c)/(b − d)] × 100(1) where a is the fluorescence intensity in the presence of both ACE and the inhibitor, b is the fluorescence intensity in the presence of ACE without the inhibitor, c is the fluorescence intensity in the presence of the inhibitor without ACE, and d is the fluorescence intensity in the absence of both ACE and the inhibitor. ACE inhibitory activity was expressed by IC50 value: the concentration of inhibition required to inhibit 50% of the ACE activity, and each IC50 value was measured three times.
row,Compound,IC50
1,C[C@H](N)C(=O)N1CCC[C@H]1C(=O)O [AP] (H-Ala-Pro-OH),230 µM
2,C[C@H](NC(=O)CN)C(=O)N1CCC[C@H]1C(=O)O [GAP] (H-Gly-Ala-Pro-OH),35 µM
3,CC(C)C[C@H](NC(=O)CN)C(=O)NCC(=O)O [GLG] (H-Gly-Leu-Gly-OH),485 µM
4,CC(C)[C@H](NC(=O)CN)C(=O)NCC(=O)O [GVG] (H-Gly-Val-Gly-OH),369 µM
5,C[C@@H](O)[C@H](N)C(=O)N[C@@H](CCCNC(=N)N)C(=O)N1CCC[C@H]1C(=O)O [TRP] (H-Thr-Arg-Pro-OH),1.3 µM
6,CC(C)[C@H](N)C(=O)N[C@@H](C)C(=O)N1CCC[C@H]1C(=O)O [VAP] (H-Val-Ala-Pro-OH),1 µM
7,CC(C)[C@H](N)C(=O)N[C@@H](C)C(=O)O [VA] (H-Val-Ala-OH),326 µM
8,CC(C)[C@H](N)C(=O)N[C@@H](CO)C(=O)N1CCC[C@H]1C(=O)O [VSP] (H-Val-Ser-Pro-OH),10.4 µM
9,VAPGVG [VAPGVG],906 µM
